Key:
[1] = Hygroscopicity test according to the Pharmacopoeia of the People's Republic of China; format: physicochemical; conditions: 48 h, 25° C., relative humidity 75%; monohydrate
Experimental: The sample of the puerarin hydrate above (prepared by method of Example 1) and anhydrous puerarin (anhydrous puerarin was prepared by: drying the hydrate as prepared in Example 1 at 90-105° C. in the presence of phosphorus pentoxide under vacuum for 24-72 hours or more to obtain an anhydrous puerarin, and the water content of anhydrous puerarin was usually lower than 1.0% as measured by Karl Fisher method) were sealed in penicillin bottles to perform accelerated stability test (chromatography conditions: chromatography column: C18 (150 mm×4.6 mm, 5 μm); mobile phase: 0.1% citric acid solution-methanol (75:25); flow rate: 1 ml/min; temperature: room temperature; detection wavelength: 250 nm). […] Hygroscopicity test was performed according to the Pharmacopoeia of the People's Republic of China: about 5 g of anhydrous puerarin and the crystalline hydrate of the present invention were taken, placed in dry watch glasses with constant weight, weighed precisely. Samples were taken separately at 0 h and 48 h of the test at 25° C. and relative humidity of 75%, and hygroscopicity weight gain percentages were calculated.

[2] = system: chronic ocular hypertension; assay: Effects on chronic ocular hypertension of rabbits (dexamethasone model); format: in vivo; conditions: within 24 hours, puerarin hydrate 1% (W/V), betaxolol 0.5% (W/V), monohydrate
Experimental: Chronic Ocular Hypertension Models: 32 rabbits, half male and half female, were subjected to sub-conjunctive injection with 0.5 mg of dexamethasone under corneal limbus, once every other day, for consecutive 3 weeks, to obtain chronic ocular hypertension models, then randomly divided into physiological saline group, betaxolol group [0.5% (W/V)], puerarin hydrate group [1% (W/V)]. The maximum decrease of intraocular pressure was measured within 24 hours.

[3] = system: arrhythmia induced by aconitine; assay: Effects on arrhythmia caused by aconitine in rats; format: in vivo, SD rats; conditions: 200 mg · kg^−1 intravenous, n = 10, p < 0.05 vs physiological saline, monohydrate
Experimental: 20 SD rats, male and female, body weight 185±19 g, randomly divided into 2 groups, separately administrated via intravenous injection with physiological saline, puerarin monohydrate (prepared by method of Example 1) (which was added with cosolvent to form an injectable solution) 200 mg·kg^−1. The rats were anesthetized with 3% pentobarbital sodium 40 mg·kg^−1, and fixed in supine position on operating table. The rats were subjected to injection via sublingual vein, after 6 min, subjected to intravenous injection of 0.0025% aconitine at a constant rate, 2 μg·min^−1 (0.08 ml·min^−1), the time of ventricular premature beat (VP), ventricular tachycardia (VT), ventricular fibrillation (VF) and cardiac arrest (CA) were recorded, and corresponding dosages were calculated.

Long-term stability test = format: physicochemical

For O=c1c(-c2ccc(O)cc2)coc2c([C@@H]3O[C@H](CO)[C@@H](O)[C@H](O)[C@H]3O)c(O)ccc12 [Sample 1, puerarin monohydrate], the “In comparison with 0 h, weight gain, %” value [1] was 0.12%, the “Maximum decrease of intraocular pressure (mmHg)” value [2] was 2.6 mmHg and the “Dose of aconitine causing cardiac arrest (CA)” value ([3]; listed as PW) was 0.0951 ± 0.0086 mg/kg. The “Dose of aconitine causing ventricular fibrillation (VF)” value ([3]; listed as PW) was 0.0635 ± 0.0077 mg/kg, the “Dose of aconitine causing ventricular premature beat (VP)” value ([3]; listed as PW) was 0.0331 ± 0.0073 mg/kg and the “Dose of aconitine causing ventricular tachycardia (VT)” value ([3]; listed as PW) was 0.0449 ± 0.0072 mg/kg. For the same molecule, the “Dose of aconitine causing cardiac arrest (CA)” value [3] was “significantly increased”, the “Dose of aconitine causing ventricular fibrillation (VF)” value [3] was “significantly increased” and the “Dose of aconitine causing ventricular premature beat (VP)” value [3] was “significantly increased”. For the same molecule, the “Dose of aconitine causing ventricular tachycardia (VT)” value [3] was “significantly increased”, the “Marked content (%)” value (Long-term stability test; sampling time 0 month) was 99.5% and the Property (Long-term stability test; sampling time 0 month) was “off-white powder”. For the same molecule, the “Related substance (%)” value (Long-term stability test; sampling time 0 month) was under 2%, the “Marked content (%)” value (Long-term stability test; sampling time 3 month) was 99.6% and the Property (Long-term stability test; sampling time 3 month) was “off-white powder”. For the same molecule, the “Related substance (%)” value (Long-term stability test; sampling time 3 month) was under 2%, the “Marked content (%)” value (Long-term stability test; sampling time 6 month) was 99.5% and the Property (Long-term stability test; sampling time 6 month) was “off-white powder”. For the same molecule, the “Related substance (%)” value (Long-term stability test; sampling time 6 month) was under 2%, the “Marked content (%)” value (Long-term stability test; sampling time 9 month) was 99.4% and the Property (Long-term stability test; sampling time 9 month) was “off-white powder”. The “Related substance (%)” value (Long-term stability test; sampling time 9 month) was under 2%, the “Marked content (%)” value (Long-term stability test; sampling time 12 month) was 99.4% and the Property (Long-term stability test; sampling time 12 month) was “off-white powder”. For the same molecule, the “Related substance (%)” value (Long-term stability test; sampling time 12 month) was under 2%.

Source: US20130331345A1, “PUERARIN HYDRATES, PREPARATION METHODS AND USES THEREOF” (priority 2010, published 2013)
